Molecular target: PD-L1 His protein / PD-1 Fc protein (Homo sapiens, UniProt Q9NZQ7)
Experiment: HTRF Assay (PD-1/PD-L1 interaction)
Format: binding
Settings: PD-L1 His 6 nM, PD-1 Fc 6 nM
Summary of the method: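 HTRF: PD-L1 His (6 nM final), compound (3-fold dilutions, 20 μM to 0.001 μM final) and PD-1 Fc (6 nM final) preincubated 15 min at room temperature. Anti-human IgG-XL665 and anti-6HIS Tb cryptate (mixed at 6.7 nM and 0.35 nM) then added for 1 h at room temperature before reading.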

Chain of PD-L1 His protein / PD-1 Fc protein (Q9NZQ7 19-238 limits assumed): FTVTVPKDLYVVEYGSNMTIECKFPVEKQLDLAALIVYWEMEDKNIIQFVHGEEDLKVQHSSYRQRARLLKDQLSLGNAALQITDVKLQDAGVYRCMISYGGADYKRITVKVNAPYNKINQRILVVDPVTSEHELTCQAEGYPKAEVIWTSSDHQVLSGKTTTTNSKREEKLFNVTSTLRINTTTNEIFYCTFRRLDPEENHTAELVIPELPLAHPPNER

Row | SMILES | IC50 [nM]
1 | COc1cc(-c2cccc(-c3cccc(-c4ccn5c(=O)c(CNC[C@@H]6CCC(=O)N6)cnc5c4)c3C)c2Cl)ccc1CNC[C@@H]1CCC(=O)N1 [Example 66, 8-(2′-Chloro-3″-methoxy-2-methyl-4″-(((((S)-5-oxopyrrolidin-2-yl)methyl)amino)methyl)-[1,1′:3′,1″-terphenyl]-3-yl)-3-(((((S)-5-oxopyrrolidin-2-yl)methyl)amino)methyl)-4H-pyrido[1,2-a]pyrimidin-4-one] | 5.2
2 | Cc1c(-c2ccn3c(=O)c(CNC[C@@H]4CCC(=O)N4)cnc3c2)cccc1-c1cccc(-c2ccc(CNC[C@@H]3CCC(=O)N3)c(Cl)c2)c1Cl [Example 67, 8-(2′,3″-Dichloro-2-methyl-4″-(((((S)-5-oxopyrrolidin-2-yl)methyl)amino)methyl)-[1,1′:3′,1″-terphenyl]-3-yl)-3-(((((S)-5-oxopyrrolidin-2-yl)methyl)amino)methyl)-4H-pyrido[1,2-a]pyrimidin-4-one] | 3.5
3 | COc1nc(-c2cccc(-c3cccc(-c4ccn5c(=O)c(CNCCNC(C)=O)cnc5c4)c3Cl)c2Cl)ccc1CNCCNC(C)=O [Example 69, N-(2-(((6-(3′-(3-(((2-Acetamidoethyl)amino)methyl)-4-oxo-4H-pyrido[1,2-a]pyrimidin-8-yl)-2,2′-dichloro-[1,1′-biphenyl]-3-yl)-2-methoxypyridin-3-yl)methyl)amino)ethyl)acetamide] | 1.9
4 | COc1nc(-c2cccc(-c3cccc(-c4ccn5c(=O)c(CN6CC7(CNC(=O)C7)C6)cnc5c4)c3Cl)c2Cl)ccc1CN1CC2(CNC(=O)C2)C1 [Example 70, 8-(2,2′-Dichloro-3′-(6-methoxy-5-((7-oxo-2,6-diazaspiro[3.4]octan-2-yl)methyl)pyridin-2-yl)-[1,1′-biphenyl]-3-yl)-3-((7-oxo-2,6-diazaspiro[3.4]octan-2-yl)methyl)-4H-pyrido[1,2-a]pyrimidin-4-one] | 7.1
5 | COc1nc(-c2cccc(-c3cccc(-c4ccn5c(=O)c(CNC[C@@H]6CCC(=O)N6)cnc5c4)c3Cl)c2Cl)cnc1N1CC(N)C1 [Example 71, (S)-8-(3′-(5-(3-Aminoazetidin-1-yl)-6-methoxypyrazin-2-yl)-2,2′-dichloro-[1,1′-biphenyl]-3-yl)-3-((((5-oxopyrrolidin-2-yl)methyl)amino)methyl)-4H-pyrido[1,2-a]pyrimidin-4-one] | 2
6 | CCOc1nc(-c2cccc(-c3cccc(-c4ccn5c(=O)c(CNC[C@@H]6CCC(=O)N6)cnc5c4)c3C)c2Cl)ccc1CNC[C@@H]1CCC(=O)N1 [Example 72, 8-(2′-Chloro-3′-(6-ethoxy-5-(((((S)-5-oxopyrrolidin-2-yl)methyl)amino)methyl)pyridin-2-yl)-2-methyl-[1,1′-biphenyl]-3-yl)-3-(((((S)-5-oxopyrrolidin-2-yl)methyl)amino)methyl)-4H-pyrido[1,2-a]pyrimidin-4-one] | 9.4
7 | CNc1nc(-c2cccc(-c3cccc(-c4ccn5c(=O)c(CNC[C@@H]6CCC(=O)N6)cnc5c4)c3C)c2Cl)ccc1CNC[C@@H]1CCC(=O)N1 [Example 73, 8-(2′-Chloro-2-methyl-3′-(6-(methylamino)-5-(((((S)-5-oxopyrrolidin-2-yl)methyl)amino)methyl)pyridin-2-yl)-[1,1′-biphenyl]-3-yl)-3-(((((S)-5-oxopyrrolidin-2-yl)methyl)amino)methyl)-4H-pyrido[1,2-a]pyrimidin-4-one] | 6.3
8 | CCNc1nc(-c2cccc(-c3cccc(-c4ccn5c(=O)c(CNC[C@@H]6CCC(=O)N6)cnc5c4)c3C)c2Cl)ccc1CNC[C@@H]1CCC(=O)N1 [Example 74, 8-(2′-Chloro-3′-(6-(ethylamino)-5-(((((S)-5-oxopyrrolidin-2-yl)methyl)amino)methyl)pyridin-2-yl)-2-methyl-[1,1′-biphenyl]-3-yl)-3-(((((S)-5-oxopyrrolidin-2-yl)methyl)amino)methyl)-4H-pyrido[1,2-a]pyrimidin-4-one] | 15
9 | COc1nc(-c2cccc(-c3cccc(-c4ccn5c(=O)c(CNCCO)cnc5c4)c3Cl)c2Cl)ccc1CNCCO [Example 75, 8-(2,2′-Dichloro-3′-(5-(((2-hydroxyethyl)amino)methyl)-6-methoxypyridin-2-yl)-[1,1′-biphenyl]-3-yl)-3-(((2-hydroxyethyl)amino)methyl)-4H-pyrido[1,2-a]pyrimidin-4-one] | 3.4
10 | Cc1c(-c2ccn3c(=O)c(CNC[C@@H]4CCC(=O)N4)cnc3c2)cccc1-c1cccc(-c2ccc3c(c2)CCC3NC[C@@H]2CCC(=O)N2)c1Cl (stereo partly drawn) [Example 76, 8-(2′-Chloro-2-methyl-3′-(1-((((S)-5-oxopyrrolidin-2-yl)methyl)amino)-2,3-dihydro-1H-inden-5-yl)-[1,1′-biphenyl]-3-yl)-3-(((((S)-5-oxopyrrolidin-2-yl)methyl)amino)methyl)-4H-pyrido[1,2-a]pyrimidin-4-one] | 3.4
11 | COc1cc(-c2cccc(-c3cccc(-c4ccn5c(=O)c(CNC[C@@H]6CCC(=O)N6)cnc5c4)c3C)c2Cl)ncc1CNC[C@@H]1CCC(=O)N1 [Example 77, 8-[3-[2-Chloro-3-[4-methoxy-5-[[[(2S)-5-oxopyrrolidin-2-yl]methylamino]methyl]-2-pyridyl]phenyl]-2-methyl-phenyl]-3-[[[(2S)-5-oxopyrrolidin-2-yl]methylamino]methyl]pyrido[1,2-a]pyrimidin-4-one] | 6.3
12 | Cc1c(-c2ccn3c(=O)c(CNC[C@@H]4CCC(=O)N4)cnc3c2)cccc1-c1cccc(-c2ccc(CNC[C@@H]3CCC(=O)N3)c(C(F)(F)F)n2)c1Cl [Example 78, 8-(2′-Chloro-2-methyl-3′-(5-(((((S)-5-oxopyrrolidin-2-yl)methyl)amino)methyl)-6-(trifluoromethyl)pyridin-2-yl)-[1,1′-biphenyl]-3-yl)-3-(((((S)-5-oxopyrrolidin-2-yl)methyl)amino)methyl)-4H-pyrido[1,2-a]pyrimidin-4-one] | 16
13 | Cc1nc(-c2cccc(-c3cccc(-c4ccn5c(=O)c(CNC[C@@H]6CCC(=O)N6)cnc5c4)c3C)c2Cl)ccc1CNC[C@@H]1CCC(=O)N1 [Example 79, 8-(2′-Chloro-2-methyl-3′-(6-methyl-5-(((((S)-5-oxopyrrolidin-2-yl)methyl)amino)methyl)pyridin-2-yl)-[1,1′-biphenyl]-3-yl)-3-(((((S)-5-oxopyrrolidin-2-yl)methyl)amino)methyl)-4H-pyrido[1,2-a]pyrimidin-4-one] | 2.8
14 | COc1nc(-c2cccc(-c3cccc(-c4ccn5c(=O)c(CNCCO)cnc5c4)c3Cl)c2Cl)ccc1CNC[C@@H]1CCC(=O)N1 [Example 80, (S)-8-(2,2′-Dichloro-3′-(6-methoxy-5-((((5-oxopyrrolidin-2-yl)methyl)amino)methyl)pyridin-2-yl)-[1,1′-biphenyl]-3-yl)-3-(((2-hydroxyethyl)amino)methyl)-4H-pyrido[1,2-a]pyrimidin-4-one] | 4.2
15 | COc1nc(-c2cccc(-c3cccc(-c4ccn5c(=O)c(CNCCNC(C)=O)cnc5c4)c3Cl)c2Cl)ccc1CNC[C@@H]1CCC(=O)N1 [Example 81, (S)—N-(2-(((8-(2,2′-Dichloro-3′-(6-methoxy-5-((((5-oxopyrrolidin-2-yl)methyl)amino)methyl)pyridin-2-yl)-[1,1′-biphenyl]-3-yl)-4-oxo-4H-pyrido[1,2-a]pyrimidin-3-yl)methyl)amino)ethyl)acetamide] | 8.3

Reference: patent US20230143612A1 (Arbutus Biopharma Corporation, priority 2020, published 2023)
